According to ChEMBL document CHEMBL1201862, “PubChem BioAssay data set” (2004):
The source made the active and inactive calls.

Legend:
Cytochrome P450 1A2 = biological target: T1, Cytochrome P450 1A2 (Homo sapiens, UniProt P05177);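 further: PubChem cytochrome P450 panel assay, CYP1A2 panel member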
T1 sequence (P05177 whole entry): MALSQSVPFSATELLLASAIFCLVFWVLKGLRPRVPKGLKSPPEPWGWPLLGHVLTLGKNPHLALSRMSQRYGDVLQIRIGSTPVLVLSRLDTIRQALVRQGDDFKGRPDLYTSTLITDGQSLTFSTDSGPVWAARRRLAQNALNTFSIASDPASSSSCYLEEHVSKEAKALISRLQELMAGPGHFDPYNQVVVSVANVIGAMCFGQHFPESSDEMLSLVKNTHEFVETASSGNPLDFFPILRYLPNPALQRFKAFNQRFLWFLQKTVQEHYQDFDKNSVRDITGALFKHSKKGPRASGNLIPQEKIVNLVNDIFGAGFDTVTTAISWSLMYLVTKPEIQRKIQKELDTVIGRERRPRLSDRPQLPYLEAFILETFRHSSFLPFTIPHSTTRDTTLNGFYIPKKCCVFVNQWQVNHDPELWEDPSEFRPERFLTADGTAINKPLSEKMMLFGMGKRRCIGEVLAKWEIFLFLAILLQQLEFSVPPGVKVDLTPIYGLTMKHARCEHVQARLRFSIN

Cytochrome P450 2C19 = Cytochrome P450 2C19 (Homo sapiens, UniProt P33261); experiment: Cytochrome panel assay with activity outcomes. Panel member name: p450-cyp2c19 Compounds with AC50 equal or less than 10 uM are considered active; assay type: functional; settings: read-out: AC50
Sequence of Cytochrome P450 2C19 (P33261 whole entry): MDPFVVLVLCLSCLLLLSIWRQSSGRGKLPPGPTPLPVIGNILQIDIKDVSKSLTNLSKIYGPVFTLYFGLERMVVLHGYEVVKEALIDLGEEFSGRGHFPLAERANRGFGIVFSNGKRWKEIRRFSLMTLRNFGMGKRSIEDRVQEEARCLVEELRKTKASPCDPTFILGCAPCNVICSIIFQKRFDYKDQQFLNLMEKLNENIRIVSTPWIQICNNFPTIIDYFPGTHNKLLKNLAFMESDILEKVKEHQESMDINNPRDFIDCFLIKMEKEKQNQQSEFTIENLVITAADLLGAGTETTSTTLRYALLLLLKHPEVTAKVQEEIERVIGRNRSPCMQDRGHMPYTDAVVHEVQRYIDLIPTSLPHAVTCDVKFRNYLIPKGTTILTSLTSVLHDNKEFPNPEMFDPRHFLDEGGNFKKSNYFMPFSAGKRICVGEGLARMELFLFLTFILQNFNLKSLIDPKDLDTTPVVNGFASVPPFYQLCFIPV

Cytochrome P450 3A4 [1] = biological target: T2, Cytochrome P450 3A4 (Homo sapiens, UniProt P08684); settings: Potency
T2 sequence (P08684 whole entry): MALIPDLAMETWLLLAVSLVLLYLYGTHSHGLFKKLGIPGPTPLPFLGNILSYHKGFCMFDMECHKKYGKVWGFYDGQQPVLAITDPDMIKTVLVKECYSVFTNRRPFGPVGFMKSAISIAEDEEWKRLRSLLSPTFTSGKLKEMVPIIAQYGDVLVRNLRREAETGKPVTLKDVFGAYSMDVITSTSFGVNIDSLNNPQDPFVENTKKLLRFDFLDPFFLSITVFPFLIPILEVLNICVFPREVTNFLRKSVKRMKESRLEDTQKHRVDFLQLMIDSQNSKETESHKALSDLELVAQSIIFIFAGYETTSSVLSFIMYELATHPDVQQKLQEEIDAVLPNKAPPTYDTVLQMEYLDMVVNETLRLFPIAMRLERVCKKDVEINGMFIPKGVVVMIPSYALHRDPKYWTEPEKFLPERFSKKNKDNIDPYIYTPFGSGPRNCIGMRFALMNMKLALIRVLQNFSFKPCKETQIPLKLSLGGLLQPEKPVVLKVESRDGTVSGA

Cytochrome P450 3A4 [2] = biological target: T2, Cytochrome P450 3A4
[3] = biological target: T3, Calpain-2 catalytic subunit (Sus scrofa, UniProt P43367); experiment: m-calpain protease blockers, concentration series – biochemical, fluorogenic peptide substrate, dose response (AID 1420); assay type: functional
T3 sequence (P43367 whole entry): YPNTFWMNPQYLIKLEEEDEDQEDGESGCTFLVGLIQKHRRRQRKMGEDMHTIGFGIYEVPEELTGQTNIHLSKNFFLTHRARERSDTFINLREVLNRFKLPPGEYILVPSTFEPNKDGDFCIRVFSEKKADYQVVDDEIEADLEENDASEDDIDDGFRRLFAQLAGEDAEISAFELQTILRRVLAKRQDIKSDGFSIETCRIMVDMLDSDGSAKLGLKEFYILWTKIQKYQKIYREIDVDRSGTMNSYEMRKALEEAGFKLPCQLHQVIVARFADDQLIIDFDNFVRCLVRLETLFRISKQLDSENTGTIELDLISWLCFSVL

Vero = experiment: cells; assay type: functional; settings: Chlorocebus sabaeus
cells = assay type: functional
[4] = Luminescence Cell-Based Dose Retest to Confirm Inhibitors of Cancer Stem Cells. [Related pubchem assays (depositor defined):AID2717, AID2721]; assay type: functional; settings: Homo sapiens
Large T antigen = Large T antigen (Simian virus 40, UniProt P03070); assay type: functional, Betapolyomavirus macacae;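 further: Confirmatory-stage PubChem screen for compounds that inhibit SV40 T antigen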
Sequence of Large T antigen (P03070 whole entry): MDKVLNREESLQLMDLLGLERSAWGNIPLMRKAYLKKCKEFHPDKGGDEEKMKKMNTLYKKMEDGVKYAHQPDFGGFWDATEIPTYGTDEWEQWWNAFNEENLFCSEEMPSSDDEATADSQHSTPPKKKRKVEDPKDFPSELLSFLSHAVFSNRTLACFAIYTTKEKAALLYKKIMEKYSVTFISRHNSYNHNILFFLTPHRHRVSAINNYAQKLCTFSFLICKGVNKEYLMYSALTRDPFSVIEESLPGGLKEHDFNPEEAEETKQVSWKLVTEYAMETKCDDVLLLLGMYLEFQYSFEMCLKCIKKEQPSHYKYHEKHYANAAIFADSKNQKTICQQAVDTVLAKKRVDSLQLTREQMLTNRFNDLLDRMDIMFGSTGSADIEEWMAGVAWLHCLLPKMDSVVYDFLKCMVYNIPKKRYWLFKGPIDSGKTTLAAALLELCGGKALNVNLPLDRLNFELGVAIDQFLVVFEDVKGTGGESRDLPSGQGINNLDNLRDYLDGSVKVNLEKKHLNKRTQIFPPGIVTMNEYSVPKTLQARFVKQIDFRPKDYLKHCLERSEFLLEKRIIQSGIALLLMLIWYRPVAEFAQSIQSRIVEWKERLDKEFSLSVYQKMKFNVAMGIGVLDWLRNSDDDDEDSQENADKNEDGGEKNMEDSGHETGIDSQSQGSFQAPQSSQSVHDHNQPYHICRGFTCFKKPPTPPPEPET

[5] = biological target: FAD-linked sulfhydryl oxidase ALR (Homo sapiens, UniProt P55789); experiment: ALR-catalysed DTT oxidation blockers – biochemical, H2O2 detection, luminescence, cherry-pick, dose response (AID 493248)
Sequence of FAD-linked sulfhydryl oxidase ALR (P55789 whole entry, the tested form may be a part): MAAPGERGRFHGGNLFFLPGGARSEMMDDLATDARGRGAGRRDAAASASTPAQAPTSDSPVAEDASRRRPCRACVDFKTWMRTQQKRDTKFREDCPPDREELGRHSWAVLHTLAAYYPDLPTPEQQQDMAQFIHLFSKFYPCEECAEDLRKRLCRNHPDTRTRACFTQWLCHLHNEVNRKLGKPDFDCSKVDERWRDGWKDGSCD

[6] = biological target: T4, Polyadenylate-binding protein 1 (Homo sapiens, UniProt P11940); experiment: MLLE domain peptide-binding blockers, IC50 – biochemical, fluorescence polarization, FITC-PAM2 peptide, dose response (AID 602259); assay type: functional; settings: read-out: IC50_Mean
T4 sequence (P11940 whole entry, the tested form may be a part): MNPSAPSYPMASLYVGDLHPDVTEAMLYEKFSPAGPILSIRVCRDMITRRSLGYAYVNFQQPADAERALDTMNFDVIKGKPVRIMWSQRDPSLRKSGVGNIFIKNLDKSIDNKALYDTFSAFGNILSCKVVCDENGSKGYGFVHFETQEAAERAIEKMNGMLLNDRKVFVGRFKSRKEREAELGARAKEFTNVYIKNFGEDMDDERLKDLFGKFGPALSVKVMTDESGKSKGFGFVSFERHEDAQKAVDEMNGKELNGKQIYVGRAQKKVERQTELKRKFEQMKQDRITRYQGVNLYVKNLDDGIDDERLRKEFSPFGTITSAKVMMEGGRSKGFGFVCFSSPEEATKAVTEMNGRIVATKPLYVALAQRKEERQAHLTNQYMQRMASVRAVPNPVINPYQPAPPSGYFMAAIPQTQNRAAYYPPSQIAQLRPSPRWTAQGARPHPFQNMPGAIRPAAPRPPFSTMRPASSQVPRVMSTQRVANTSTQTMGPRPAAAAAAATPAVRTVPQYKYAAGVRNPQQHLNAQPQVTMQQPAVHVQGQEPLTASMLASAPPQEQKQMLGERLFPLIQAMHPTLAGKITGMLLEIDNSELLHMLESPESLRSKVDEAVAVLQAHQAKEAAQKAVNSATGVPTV

[7] = biological target: T4, Polyadenylate-binding protein 1; experiment: MLLE binding blockers, Cy5 peptide tracer – biochemical, fluorescence polarization, Cy5-PAM2 peptide, secondary, miRNA deadenylation inhibitor project, dose response (AID 602260); assay type: functional; settings: read-out: IC50_Mean
[8] = biological target: T5, Ubiquitin-conjugating enzyme E2 N (Homo sapiens, UniProt P61088); assay type: functional;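 further: Dose-response confirmation in a TR-FRET assay detecting UBC13-driven polyubiquitin chain formation, inhibition measured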
T5 sequence (P61088 whole entry): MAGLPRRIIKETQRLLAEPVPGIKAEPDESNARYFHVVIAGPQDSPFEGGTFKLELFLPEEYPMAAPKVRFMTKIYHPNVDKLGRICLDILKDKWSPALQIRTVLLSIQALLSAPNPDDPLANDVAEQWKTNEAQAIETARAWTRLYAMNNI

[9] = fluconazole-exposed Candida albicans growth modulators – fluorescence, retest, confirmation (AID 2467); assay type: functional, cell-based
[10] = NIH-3T3 fibroblast cytotoxicity, dose response, cytotoxicity control, cell-based, fluorescence, Alamar Blue, secondary assay (AID 2327); assay type: functional;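 further: NIH-3T3 mouse fibroblasts cultured with fluconazole at 8 µg/mL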
[11] = biological target: T6, Heat shock factor protein 1 (Mus musculus, UniProt P38532); experiment: decrease of HSF1-responsive luciferase luminescence – cell-based, NIH3T3, dose retest, confirmation (AID 2382); assay type: functional;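 further: NIH3T3 fibroblasts with HSF1-driven luciferase reporter stressed by proteasome inhibitor MG132; luminescence from HSF1-driven luciferase expression after 8 hours of MG132 stress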
T6 sequence (P38532 whole entry): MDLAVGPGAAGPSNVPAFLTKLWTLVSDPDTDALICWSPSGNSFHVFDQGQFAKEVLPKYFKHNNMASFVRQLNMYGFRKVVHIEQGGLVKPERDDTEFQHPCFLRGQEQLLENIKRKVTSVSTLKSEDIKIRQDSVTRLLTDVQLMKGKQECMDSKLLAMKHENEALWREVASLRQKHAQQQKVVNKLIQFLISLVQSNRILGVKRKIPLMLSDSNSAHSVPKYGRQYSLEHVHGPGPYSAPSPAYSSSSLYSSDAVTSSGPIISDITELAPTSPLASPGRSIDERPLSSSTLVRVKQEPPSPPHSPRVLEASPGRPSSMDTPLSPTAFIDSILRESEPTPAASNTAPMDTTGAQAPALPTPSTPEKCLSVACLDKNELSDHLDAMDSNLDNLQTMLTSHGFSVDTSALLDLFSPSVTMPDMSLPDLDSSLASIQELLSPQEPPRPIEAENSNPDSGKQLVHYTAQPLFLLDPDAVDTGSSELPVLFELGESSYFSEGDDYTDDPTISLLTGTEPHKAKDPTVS

[12] = biological target: T7, Rac GTPase-activating protein 1 (Homo sapiens, UniProt Q9H0H5); experiment: blockers of MgcRacGAP-driven Rac1 GTP hydrolysis – biochemical, ADP Hunter fluorescence, primary and confirmatory, confirmation (AID 624330); assay type: functional
T7 sequence (Q9H0H5 whole entry): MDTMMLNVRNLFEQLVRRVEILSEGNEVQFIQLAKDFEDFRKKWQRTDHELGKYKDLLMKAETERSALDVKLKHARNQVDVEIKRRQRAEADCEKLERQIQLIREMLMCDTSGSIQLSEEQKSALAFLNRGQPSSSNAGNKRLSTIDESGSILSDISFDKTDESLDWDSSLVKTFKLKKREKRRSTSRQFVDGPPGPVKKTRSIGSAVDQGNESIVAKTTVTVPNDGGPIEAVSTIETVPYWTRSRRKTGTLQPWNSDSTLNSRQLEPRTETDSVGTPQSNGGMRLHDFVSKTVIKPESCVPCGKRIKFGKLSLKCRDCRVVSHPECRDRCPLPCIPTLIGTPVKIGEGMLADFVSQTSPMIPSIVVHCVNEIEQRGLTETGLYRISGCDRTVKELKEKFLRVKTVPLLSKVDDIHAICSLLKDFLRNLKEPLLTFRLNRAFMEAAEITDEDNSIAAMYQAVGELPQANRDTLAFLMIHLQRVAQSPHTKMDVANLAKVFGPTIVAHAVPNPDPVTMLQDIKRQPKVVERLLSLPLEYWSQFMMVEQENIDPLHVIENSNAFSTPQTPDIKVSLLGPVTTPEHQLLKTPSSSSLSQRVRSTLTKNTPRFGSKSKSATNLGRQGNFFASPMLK

Streptokinase A = biological target: T8, Streptokinase A (Streptococcus pyogenes serotype M1, UniProt P10520); experiment: viability-normalized secreted streptokinase activity reduction – plasminogen activation absorbance, OD405, dose response (AID 1914); assay type: functional, Streptococcus pyogenes M1 GAS;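 further: secreted streptokinase activity via plasminogen activation per viability signal from cell pellet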
T8 sequence (P10520 whole entry): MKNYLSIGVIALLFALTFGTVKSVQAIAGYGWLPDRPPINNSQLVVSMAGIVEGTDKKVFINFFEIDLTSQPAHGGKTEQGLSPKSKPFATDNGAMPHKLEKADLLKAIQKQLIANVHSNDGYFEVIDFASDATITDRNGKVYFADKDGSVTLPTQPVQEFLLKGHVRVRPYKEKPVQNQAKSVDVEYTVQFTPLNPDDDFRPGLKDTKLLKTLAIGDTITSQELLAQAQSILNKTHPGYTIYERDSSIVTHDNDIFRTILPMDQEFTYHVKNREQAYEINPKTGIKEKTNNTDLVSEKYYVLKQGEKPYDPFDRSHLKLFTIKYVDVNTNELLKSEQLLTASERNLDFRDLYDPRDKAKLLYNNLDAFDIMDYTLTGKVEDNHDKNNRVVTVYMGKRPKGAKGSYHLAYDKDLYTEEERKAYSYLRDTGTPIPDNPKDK

Streptococcus = experiment: GAS UMAA2166 growth inhibition – luminescence, BacTiterGlo, counter-screen for streptokinase expression inhibitor project, dose response (AID 1915); assay type: functional, organism-based;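 further: potency for reduction of bacterial viability or growth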
[13] = system: Streptococcus sp. 'group A'; experiment: Streptococcus pyogenes SK(-)GAS viability under kanamycin – luminescence, BacTiterGlo, confirmation, counter-screen for streptokinase expression inhibitor project, dose response (AID 1900); assay type: functional, organism-based
HEK293 = experiment: EBV LMP1 TES2 canonical NF-kB signalling blockers – cell-based, HEK293, luciferase, cherry-pick, dose response (AID 588343); assay type: functional; settings: Homo sapiens
P388 = experiment: cells; assay type: functional;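 further: compound exposure lasted 48 hours before growth was measured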
SN12K1 = experiment: cells; assay type: functional

CC(=O)NNC(=O)N1Cc2ccccc2Oc2ccc(Cl)cc21
AC50 (Cytochrome P450 1A2): 31.6 µM (inconclusive) | AC50 (Cytochrome P450 2C19): 5.01 µM (inconclusive) | AC50 (Cytochrome P450 3A4 [1]): 12.6 µM (inconclusive) | AC50 (Cytochrome P450 3A4 [2]): 20 µM (inconclusive)

Cc1cccc(NC(=O)CN2C(=O)N/C(=C/c3cc(C)n(-c4cccnc4)c3C)C2=O)c1
IC50 [3]: > 50 µM (not active)

O=C(NCCCN1CCOCC1)c1ccc(CSc2ccc(Cl)cc2)cc1
CC50 (Vero): > 25 µM (active) | IC50 (cells): 34.3 µM (active) | AC50 [4]: 1.25 µM (active)

CN1CCN(S(=O)(=O)c2ccc(N3CCN(c4ccc(O)cc4)CC3)c([N+](=O)[O-])c2)CC1
IC50 (Large T antigen): 8.6 µM (active) | AC50 [5]: 2.62 µM (active)

COc1cc(NS(=O)(=O)c2ccc(NC(=S)NC(=O)c3sc4ccccc4c3Cl)cc2)nc(OC)n1
IC50 [6]: > 66 µM (inactive) | IC50 [7]: > 66 µM (inactive) | IC50 [3]: > 50 µM (not active)

COc1ccc2[nH]cc(CCNC(=O)Nc3ccccc3)c2c1
IC50 [8]: > 20 µM (inactive)

CCOC(=O)C(=NC1CCCCC1)NNc1cccc(C(F)(F)F)c1
EC50 [9]: > 38 µM (not active) | EC50 [10]: > 150 µM (inconclusive)

N#Cc1ccc(C23CC4(C2)[C@H](CN(Cc2ccc(-c5ccccc5)cc2)[C@@H]4c2ccccc2)C3c2ccccc2)cc1 (stereo not given in full)
AC50 (Cytochrome P450 3A4 [1]): 15.8 µM (inconclusive)

Cc1c(O)cc2n(c1=O)-c1ccc(Cl)cc1C2(C)C
EC50 [9]: 2 µM (active) | EC50 [10]: > 150 µM (inactive)

O=c1c2cc(-c3ccccc3)sc2nc2n1N=C(c1ccccc1)CS2
CC50 (Vero): > 25 µM (active)

Cc1ccc(S(=O)(=O)N2CCCCC2)cc1NC(=O)COC(=O)c1ccc2c(c1)OCO2
IC50 [3]: 1.74 µM (not active)

CC[C@H](C)[C@@H]1NC(=O)c2cc([N+](=O)[O-])cc(F)c2NCCCC[C@@H](C(N)=O)NC(=O)[C@H](CCCCN)NC1=O
IC50 [8]: > 20 µM (inactive)

CC(NC(=O)Nc1ccccc1F)C(C)(C)C (stereo not given)
EC50 [10]: > 160 µM (inconclusive)

CCCN1CCN(CCCNC(=O)c2cc3c(O)nc4ccc(C)cc4c3s2)CC1
CC50 (Vero): > 25 µM (active)

Cc1cc(C)cc(SCc2noc(C(=O)NCc3ccccc3)c2C(=O)NCc2ccccc2)c1
EC50 [11]: > 195 µM (not active) | IC50 [3]: 6.27 µM (not active)

CC(C)n1c(O)c(N=NC(=O)CNC(=O)CCc2ccccc2)c2ccccc21
IC50 [3]: > 50 µM (not active)

COc1ccc(CCNC(=O)CCC2COc3ccccc3O2)cc1OC (stereo not given)
EC50 [9]: 16.9 µM (active) | EC50 [10]: > 150 µM (inactive)

Cc1ccc2oc(=O)c3c4cc(O)c(O)c(C)c4oc3c2c1
AC50 (Cytochrome P450 3A4 [1]): 12.6 µM (inconclusive)

CCOc1cc(/C=C2/N=C(C)C(C(=O)OC)=C2O)ccc1O
IC50 (Large T antigen): 5.78 µM (active) | IC50 [12]: 26.3 µM (active)

CCOc1ccc2nc(N(CCCN(C)C)C(=O)c3ccc(C(=O)c4ccccc4)cc3)sc2c1
IC50 [8]: > 20 µM (inactive)

CC(=O)O[C@H]1C[C@@]2(C)[C@@H](C[C@@H](O)[C@H]3[C@@]4(C)CC[C@@H](O)[C@@H](C)C4CC[C@@]32C)/C1=C(\CCC=C(C)C)C(=O)O (stereo not given in full)
IC50 (Large T antigen): 24.7 µM (active) | EC50 (Streptokinase A): 1.78 µM (active) | EC50 (Streptococcus): 13.7 µM (active) | EC50 [13]: 2.26 µM (active)

Cc1nnc(O)nc1Nc1ccc(O)cc1
IC50 (Large T antigen): 4.52 µM (active)

Cc1ccc(NCc2nnc(SCC(=O)N(Cc3ccccc3)C(C)(C)C)o2)c(C)c1
IC50 [3]: 5.13 µM (not active)

NC(=S)NN=Cc1nccc2c(C(F)(F)F)cccc12
AC50 (HEK293): 1.77 µM (active) | CC50 (Vero): 2.01 µM (active)

CCCCCCCCCCSCC(CO)NC(=O)/C=C/c1c(C)[nH]c(=O)[nH]c1=O (stereo not given)
GI50 (P388): 479 nM (active) | GI50 (P388; Mus musculus, P388): 284 nM (active) | GI50 (SN12K1): 1.26 µM (inactive) | GI50 (SN12K1; Homo sapiens, SN12K1): 1.05 µM (active)

CN(C)/N=C/c1cc([N+](=O)[O-])ccc1O
IC50 [3]: 13.8 µM (not active)

Cc1[nH]c2ccccc2c1/C=N\NC(=O)Cn1nnc(-c2ccccc2)n1
IC50 [3]: > 50 µM (not active)

COc1ccc(/C=N/NC(=O)CCc2nnc(O)nc2O)cc1O
IC50 (Large T antigen): 28.9 µM (active)

C(=C\c1ccccc1)/C=N/Nc1nc(N2CCCCC2)nc(N2CCCCC2)n1
EC50 [9]: > 38 µM (not active) | EC50 [10]: > 150 µM (inactive)
